Test results taken from patent publication US9073835B2, “N-acylthiourea and N-acylurea inhibitors of the Hedgehog protein signalling pathway” (Centre National De La Recherche Scientifique, priority 2008, dated 2015).

How the values were obtained:
[1] = test system: Hedgehog protein signaling pathway; test: Inhibition of SAG-induced alkaline phosphatase activity (differentiation) in C3H10T1/2 cells; type: cell-based; details: for inhibition at 10 µM: C3H 10T1/2, 10 μM test compound
Method: The effect of compounds with formula (I) as claimed in the invention on inhibition of the Hedgehog protein signaling pathway was determined by analysis of differentiation in the pluripotent fibroblast cell line C3H10T1/2 after activation of this pathway in these cells using a synthetic activator: SAG.
The compounds with formula (I) to be tested were dissolved in dimethylsulfoxide to a concentration of 10 mM, then stored at a temperature of −20° C. until use.
The pluripotent fibroblast cell line C3H10T1/2 (ATCC) was cultivated under the conditions recommended by the ATCC. These cells were activated using 0.1 μM of SAG, employing the methods described by Chen et al., Proc. Natl. Acad. Sci. USA, 2002, 99, 14071 and Frank-Kamenetsky et al., J. Biol., 2002, 1, 10.
Activation with SAG provokes differentiation of the cell line and allows them to express alkaline phosphatase. It is then possible to measure the activity of the Hedgehog protein signaling pathway by measuring the alkaline phosphatase activity.
The C3H10T1/2 cells were plated onto 96-well plates at a density of […], 24 hours before addition of the test compounds in a concentration of 1 nM to 30 μM and in the presence of 0.1 μM of SAG using DMEM supplemented with 10% fetal calf serum as the culture medium. The tests were carried out in quadruplicate. The plates were then incubated for 5-6 days at a temperature of 37° C. in an atmosphere of 5% CO2. The cells were washed in a cold phosphate buffer (“Phosphate Buffer Serum”: PBS) then lysed by sonication at 4° C. in 50 μl of a solution containing 0.9% of NaCl and 0.2% of Triton X-100.
By way of comparison, the activity of a known inhibitor of the Hedgehog protein signaling pathway, CURIS 61 414, as described, for example, by Frank-Kamenetsky M. et al. (J. Biol., 2002, 1, 10), was tested under the same conditions as those used to test the various compounds with formula (I) as claimed in the invention.
The alkaline phosphatase activity measurement in the lysates obtained was then carried out using the method described by Pepinsky et al. (J. Biol. Chem., 1998, 273, 14037). After adding 100 μl of reaction buffer (200 mM Tris-HCl; pH 10.5; 0.4 M of 2-amino-2-methylpropanol and 8 mM of MgCl2) and 50 μl of substrate (4 mM of disodium p-nitrophenyl phosphate), the lysates were incubated at 37° C. for 30-60 min, then the optical density was read at a wavelength of 415 nm.

mouse Smoothened protein = biological target: T1, mouse Smoothened protein (Mus musculus, UniProt P56726); test: Competitive Bodipycyclopamine binding on HEK293 cells transfected with mouse Smoothened; details: for IC50: 5 nM Bodipycyclopamine, 2 hours at 37° C., HEK293 cells expressing mouse Smoothened; for Bodipycyclopamine binding competition: fluorescence microscopy, FIGS. 2 and 3
T1 construct: expressed in transfected cells; host or cells: HEK293
T1 sequence (P56726 33-793): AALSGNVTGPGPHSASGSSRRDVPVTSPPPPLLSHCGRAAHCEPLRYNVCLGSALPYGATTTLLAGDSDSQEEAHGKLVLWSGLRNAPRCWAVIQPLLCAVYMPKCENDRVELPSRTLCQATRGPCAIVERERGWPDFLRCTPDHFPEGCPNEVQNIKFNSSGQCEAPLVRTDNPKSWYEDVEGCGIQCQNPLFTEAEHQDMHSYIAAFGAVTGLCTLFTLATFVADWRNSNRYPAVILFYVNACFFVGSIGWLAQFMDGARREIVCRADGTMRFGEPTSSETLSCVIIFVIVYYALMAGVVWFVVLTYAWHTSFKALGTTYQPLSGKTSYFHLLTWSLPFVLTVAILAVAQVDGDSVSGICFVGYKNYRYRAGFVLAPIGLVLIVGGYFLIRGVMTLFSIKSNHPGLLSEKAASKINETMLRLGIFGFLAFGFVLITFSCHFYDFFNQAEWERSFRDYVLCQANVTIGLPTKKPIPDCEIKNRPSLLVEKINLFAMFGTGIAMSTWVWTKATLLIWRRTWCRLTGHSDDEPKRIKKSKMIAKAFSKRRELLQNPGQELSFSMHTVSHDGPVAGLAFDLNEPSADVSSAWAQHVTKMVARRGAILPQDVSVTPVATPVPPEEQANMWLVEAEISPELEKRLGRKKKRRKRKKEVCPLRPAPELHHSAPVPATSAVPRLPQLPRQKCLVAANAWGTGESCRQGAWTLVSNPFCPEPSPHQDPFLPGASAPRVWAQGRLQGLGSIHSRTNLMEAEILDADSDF
Method: HEK293 cells were plated in a quantity of 70 000 cells per well onto glass cover slips treated with poly-D-lysine into 24-well plates, and transfected the next day with 0.25 μg of plasmid encoding the mouse Smoothened protein (Masdeu C., Faure H., Coulombe J., Schoenfelder A., Mann A., Brabet I., Pin J-P., Traiffort E. and Ruat M., Identification and characterization of Hedgehog modulator properties after functional coupling of Smoothened to G15, Biochem Biophys Res. Commun., 2006, 349:471-479), using 0.7 μL of fugene6 (Roche Biochemicals). After 48 hours, the culture medium was eliminated, the cells were rinsed once with 1 mL of a phosphate buffer solution, PBS (Phosphate Buffered Saline), then fixed for 20 minutes in the presence of an iced 4% solution of paraformaldehyde (PFA) and 0.12M glucose in a PBS phosphate buffer solution. The cells were then rinsed twice and washed twice for 5 minutes with 1 mL of a phosphate buffer solution and 0.5% of fetal calf serum (PBS-FCS). Next, 1 mL of Bodipycyclopamine (BC) (Chen, J. K., Taipale, J., Cooper, M. K., and Beachy, P. A., Genes Dev., 2002, 16 (21), 2743-2748), diluted to 5 nM in PBS-FCS, in the presence of compounds 31 and 38 of the invention, was applied to the cells for 2 hours at 37° C. The cells were then washed twice for 5 minutes with 1 mL of PBS-FCS and brought into the presence of 1 mL of a PBS 1× phosphate buffer solution. Finally, the cover slips were mounted on a glass slide in the presence of Vectashield containing DAPI (4′,6′-DiAmidino-2-Phenyl Indole) to stain the cell nuclei (Vector).
In FIG. 2, the intensity of the fluorescence was analyzed using Simple PCI 6.2 software (Hamamatsu Corporation), then related to the surface area of the nuclei present in the photograph.

[2] = Mus musculus, percentage of alkaline phosphatase activity induced by SAG
[3] = Mus musculus, C3H 10T1/2, after induction by 0.1 μM SAG

Row | Compound | melting point [°C] | IC50 [1, 3] [µM] | IC50 (mouse Smoothened protein) [nM] | Bodipycyclopamine binding competition (mouse Smoothened protein) | IC50 ([1]; after induction by 0.1 μM SAG) [µM] | inhibition at 10 µM [1, 2] [%] | % INHIBITION of alkaline phosphatase activity ([1]; 10 μM test compound, percentage of alkaline phosphatase activity induced by SAG)
1 | COc1ccc(C(=O)Nc2cccc(NC(=S)NC(=O)c3cc(OC)c(OC)c(OC)c3)c2)cc1 [Compound 1, N-[[[3-(4-methoxy-benzoylamino)phenyl]amino]thioxomethyl]-3,4,5-methoxy-benzamide] | 147 | 1 to 3 | – | – | – | > 80 | –
2 | CC1=C2C[C@H]3[C@@H](CC=C4C[C@@H](O)CC[C@@]43C)[C@@H]2CC[C@]12O[C@@H]1C[C@H](C)CN[C@H]1[C@H]2C [Cyclopamine, reference compound] | – | – | – | binding competition was observed | – | – | –
3 | COc1ccc(NC(=S)NC(=O)c2cc(OC)c(OC)c(OC)c2)cc1NC(=O)c1ccccc1 [Compound 26, N-[[[4-methoxy-3-(benzoylamino)phenyl]amino]thioxomethyl]-3,4,5-methoxy-benzamide] | – | – | – | – | – | 20 to 80 | –

The next lines start with results.

Row | melting point [°C] | IC50 [1, 3] [µM] | IC50 (mouse Smoothened protein) [nM] | Bodipycyclopamine binding competition (mouse Smoothened protein) | IC50 ([1]; after induction by 0.1 μM SAG) [µM] | Compound | inhibition at 10 µM [1, 2] [%] | % INHIBITION of alkaline phosphatase activity ([1]; 10 μM test compound, percentage of alkaline phosphatase activity induced by SAG)
4 | – | 0.01 to 1 | 120 | binding competition was observed | – | COc1cc(C(=O)NC(=O)Nc2cccc(NC(=O)c3ccccc3)c2)cc(OC)c1OC [Compound 31, N-[[[3-(benzoylamino)phenyl]amino]oxomethyl]-3,4,5-methoxy-benzamide] | > 80 | –
5 | – | – | 500 | binding competition was observed | 0.01 to 1 | N-[[[3-(benzoylamino)phenyl]amino]thioxomethyl]-3,4,5-methoxy-benzamide [Compound 38] | – | A (the letter A corresponds to an inhibition of more than 80%)
